Experimental data published in the NIST ThermoML archive (doi:10.1021/je300799f).

Experiment: xn = mol fraction of the nth substance listed
Details: 101 kPa, Liquid, Vibrating tube method

CCCC(=O)OCC [ethyl butanoate] + CCCCCCC
Details | mass density [kg/m3]
288.15 K, x1 = 0.0502 | 696.39
288.15 K, x1 = 0.0918 | 703.35
288.15 K, x1 = 0.1473 | 712.8
288.15 K, x1 = 0.2022 | 722.42
288.15 K, x1 = 0.2465 | 730.35
288.15 K, x1 = 0.288 | 737.84
288.15 K, x1 = 0.3987 | 758.41
288.15 K, x1 = 0.4488 | 767.94
288.15 K, x1 = 0.5008 | 778.03
288.15 K, x1 = 0.5456 | 786.84
288.15 K, x1 = 0.6023 | 798.22
288.15 K, x1 = 0.6584 | 809.63
288.15 K, x1 = 0.6999 | 818.26
288.15 K, x1 = 0.7486 | 828.54
288.15 K, x1 = 0.8042 | 840.42
288.15 K, x1 = 0.8481 | 850.01
288.15 K, x1 = 0.901 | 861.58
288.15 K, x1 = 0.9347 | 869.11
288.15 K, x1 = 0.9527 | 873.2
288.15 K, x1 = 1 | 884.01
298.15 K, x1 = 0.0522 | 688.18
298.15 K, x1 = 0.0904 | 694.54
298.15 K, x1 = 0.1404 | 703.05
298.15 K, x1 = 0.1901 | 711.58
298.15 K, x1 = 0.2539 | 722.68
298.15 K, x1 = 0.2962 | 730.22
298.15 K, x1 = 0.3543 | 740.87
298.15 K, x1 = 0.4 | 749.31
298.15 K, x1 = 0.443 | 757.44
298.15 K, x1 = 0.5517 | 778.51
298.15 K, x1 = 0.6018 | 788.45
298.15 K, x1 = 0.648 | 797.84
298.15 K, x1 = 0.6976 | 808.02
298.15 K, x1 = 0.7463 | 818.17
298.15 K, x1 = 0.7884 | 827.06
298.15 K, x1 = 0.8473 | 839.64
298.15 K, x1 = 0.9054 | 852.26
298.15 K, x1 = 0.9524 | 862.74
298.15 K, x1 = 1 | 873.5
308.15 K, x1 = 0.0461 | 678.42
308.15 K, x1 = 0.0952 | 686.44
308.15 K, x1 = 0.1445 | 694.69
308.15 K, x1 = 0.2034 | 704.7
308.15 K, x1 = 0.2497 | 712.78
308.15 K, x1 = 0.3081 | 723.17
308.15 K, x1 = 0.3441 | 729.57
308.15 K, x1 = 0.406 | 741.01
308.15 K, x1 = 0.4563 | 750.35
308.15 K, x1 = 0.5053 | 759.76
308.15 K, x1 = 0.5505 | 768.46
308.15 K, x1 = 0.6038 | 778.99
308.15 K, x1 = 0.6498 | 788.17
308.15 K, x1 = 0.7026 | 798.87
308.15 K, x1 = 0.7544 | 809.6
308.15 K, x1 = 0.788 | 816.69
308.15 K, x1 = 0.8424 | 828.13
308.15 K, x1 = 0.9009 | 840.82
308.15 K, x1 = 0.9512 | 851.86
308.15 K, x1 = 1 | 862.85
318.15 K, x1 = 0.0532 | 670.78
318.15 K, x1 = 0.095 | 677.56
318.15 K, x1 = 0.1397 | 684.91
318.15 K, x1 = 0.2087 | 696.59
318.15 K, x1 = 0.2565 | 704.87
318.15 K, x1 = 0.3048 | 713.3
318.15 K, x1 = 0.3608 | 723.3
318.15 K, x1 = 0.4046 | 731.26
318.15 K, x1 = 0.4532 | 740.3
318.15 K, x1 = 0.5065 | 750.34
318.15 K, x1 = 0.5517 | 759.04
318.15 K, x1 = 0.6007 | 768.46
318.15 K, x1 = 0.6492 | 778.12
318.15 K, x1 = 0.6934 | 787.02
318.15 K, x1 = 0.739 | 796.28
318.15 K, x1 = 0.7947 | 807.72
318.15 K, x1 = 0.8554 | 820.65
318.15 K, x1 = 0.8861 | 827.23
318.15 K, x1 = 0.9515 | 841.48
318.15 K, x1 = 1 | 852.26
328.15 K, x1 = 0.0535 | 662.06
328.15 K, x1 = 0.0975 | 669.12
328.15 K, x1 = 0.1485 | 677.41
328.15 K, x1 = 0.1785 | 682.4
328.15 K, x1 = 0.2367 | 692.21
328.15 K, x1 = 0.3034 | 703.69
328.15 K, x1 = 0.359 | 713.56
328.15 K, x1 = 0.4538 | 730.76
328.15 K, x1 = 0.5087 | 741
328.15 K, x1 = 0.5511 | 749.04
328.15 K, x1 = 0.6093 | 760.27
328.15 K, x1 = 0.6471 | 767.65
328.15 K, x1 = 0.6967 | 777.52
328.15 K, x1 = 0.739 | 786.07
328.15 K, x1 = 0.7999 | 798.54
328.15 K, x1 = 0.8397 | 806.83
328.15 K, x1 = 0.9086 | 821.54
328.15 K, x1 = 0.9533 | 831.27
328.15 K, x1 = 1 | 841.55

CCCC(=O)OCC [ethyl butanoate] + CCCCCCCCC
Details | mass density [kg/m3]
288.15 K, x1 = 0.0379 | 725.8
288.15 K, x1 = 0.1046 | 733.19
288.15 K, x1 = 0.1502 | 738.59
288.15 K, x1 = 0.2013 | 744.84
288.15 K, x1 = 0.2499 | 751.04
288.15 K, x1 = 0.3047 | 758.28
288.15 K, x1 = 0.3427 | 763.5
288.15 K, x1 = 0.3961 | 771.2
288.15 K, x1 = 0.4355 | 776.9
288.15 K, x1 = 0.4957 | 786.1
288.15 K, x1 = 0.5455 | 794.1
288.15 K, x1 = 0.5857 | 800.8
288.15 K, x1 = 0.6498 | 811.8
288.15 K, x1 = 0.7067 | 822.09
288.15 K, x1 = 0.752 | 830.65
288.15 K, x1 = 0.8019 | 840.45
288.15 K, x1 = 0.8502 | 850.42
288.15 K, x1 = 0.904 | 861.91
288.15 K, x1 = 0.9569 | 873.91
288.15 K, x1 = 1 | 884.01
298.15 K, x1 = 0.0486 | 719.05
298.15 K, x1 = 0.0906 | 723.69
298.15 K, x1 = 0.1007 | 724.84
298.15 K, x1 = 0.1495 | 730.49
298.15 K, x1 = 0.2442 | 742.05
298.15 K, x1 = 0.2985 | 749.08
298.15 K, x1 = 0.3131 | 750.97
298.15 K, x1 = 0.3518 | 756.23
298.15 K, x1 = 0.4357 | 768.18
298.15 K, x1 = 0.5028 | 778.32
298.15 K, x1 = 0.5511 | 785.92
298.15 K, x1 = 0.5974 | 793.57
298.15 K, x1 = 0.703 | 811.93
298.15 K, x1 = 0.746 | 819.92
298.15 K, x1 = 0.7879 | 827.92
298.15 K, x1 = 0.8532 | 841.01
298.15 K, x1 = 0.9053 | 852.07
298.15 K, x1 = 1 | 873.5
308.15 K, x1 = 0.0505 | 711.25
308.15 K, x1 = 0.0818 | 714.63
308.15 K, x1 = 0.1528 | 722.65
308.15 K, x1 = 0.1872 | 726.67
308.15 K, x1 = 0.2112 | 729.53
308.15 K, x1 = 0.2818 | 738.36
308.15 K, x1 = 0.3302 | 744.66
308.15 K, x1 = 0.3685 | 749.81
308.15 K, x1 = 0.426 | 757.85
308.15 K, x1 = 0.4773 | 765.37
308.15 K, x1 = 0.5187 | 771.59
308.15 K, x1 = 0.5712 | 779.88
308.15 K, x1 = 0.642 | 791.55
308.15 K, x1 = 0.6753 | 797.37
308.15 K, x1 = 0.726 | 806.38
308.15 K, x1 = 0.7822 | 816.86
308.15 K, x1 = 0.833 | 826.88
308.15 K, x1 = 0.878 | 836.1
308.15 K, x1 = 0.9384 | 848.96
308.15 K, x1 = 1 | 862.85
318.15 K, x1 = 0.0435 | 702.45
318.15 K, x1 = 0.1009 | 708.56
318.15 K, x1 = 0.1439 | 713.46
318.15 K, x1 = 0.2001 | 719.85
318.15 K, x1 = 0.2489 | 725.77
318.15 K, x1 = 0.2861 | 730.43
318.15 K, x1 = 0.355 | 739.26
318.15 K, x1 = 0.402 | 745.62
318.15 K, x1 = 0.4556 | 753.18
318.15 K, x1 = 0.4988 | 759.53
318.15 K, x1 = 0.547 | 766.88
318.15 K, x1 = 0.6011 | 775.45
318.15 K, x1 = 0.656 | 784.53
318.15 K, x1 = 0.6951 | 791.27
318.15 K, x1 = 0.7543 | 801.83
318.15 K, x1 = 0.7999 | 810.52
318.15 K, x1 = 0.8485 | 819.97
318.15 K, x1 = 0.8947 | 829.27
318.15 K, x1 = 0.9545 | 842.03
318.15 K, x1 = 1 | 852.26
328.15 K, x1 = 0.0481 | 695.05
328.15 K, x1 = 0.1134 | 701.93
328.15 K, x1 = 0.1627 | 707.35
328.15 K, x1 = 0.2102 | 712.81
328.15 K, x1 = 0.2589 | 718.53
328.15 K, x1 = 0.3111 | 725
328.15 K, x1 = 0.3588 | 731.17
328.15 K, x1 = 0.402 | 736.91
328.15 K, x1 = 0.4562 | 744.36
328.15 K, x1 = 0.5565 | 759.06
328.15 K, x1 = 0.5996 | 765.77
328.15 K, x1 = 0.6524 | 774.29
328.15 K, x1 = 0.7062 | 783.42
328.15 K, x1 = 0.7544 | 791.91
328.15 K, x1 = 0.806 | 801.44
328.15 K, x1 = 0.8433 | 808.67
328.15 K, x1 = 0.8917 | 818.28
328.15 K, x1 = 0.9532 | 831.23
328.15 K, x1 = 1 | 841.55
